Test results reported in patent publication US20100137226A1, “FATIGUE-REDUCING AGENT” (KYOWA HAKKO BIO CO., LTD, priority 2006, published 2010).
Like-named read-outs stand apart in the source and are kept apart here.

System: SD male rats bred under water immersion
Conditions: swim with burden of ca. 8% of body weight, n=4, FIG. 1

Structure (SMILES) | swimming time (time until the tip of nose was submerged in water for 10 seconds or more) (reduced glutathione 800 mg/kg body weight orally once a day for 5 days of water immersion breeding) | swimming time (time until the tip of nose was submerged in water for 10 seconds or more) (ornithine 1000 mg/kg body weight orally once a day for 5 days of water immersion breeding)
N[C@@H](CCC(=O)N[C@@H](CS)C(=O)NCC(=O)O)C(=O)O [glutathione, reduced glutathione] | no change was recognized | –
Cl.NCCC[C@H](N)C(=O)O [ornithine, L-ornithine hydrochloride] | – | recovery of the swimming time was recognized
